Our source for the aqueous solubility and logP values is US20240261290A1, “PHARMACEUTICAL COMPOSITION COMPRISING 7-(4-CHLOROBENZYL)-1-(3-HYDROXYPROPYL)-3-METHYL-8-(3-(TRIFLUOROMETHOXY)-PHENOXY)-3,7-DIHYDRO-1H-PURINE-2,6-DIONE” (Boehringer Ingelheim International GmbH, priority 2023, published 2024).

Data set [1] can be described thus: Aqueous solubility of Compound 1. It counts as physicochemical. The following applies: under acidic to neutral conditions.
Data set [2] is described as follows: Lipophilicity (logP) of Compound 1. It counts as physicochemical.

As to `Cn1c(=O)n(CCCO)c(=O)c2c1nc(Oc1cccc(OC(F)(F)F)c1)n2Cc1ccc(Cl)cc1` [Compound 1, 7-(4-chlorobenzyl)-1-(3-hydroxypropyl)-3-methyl-8-(3-(trifluoromethoxy)-phenoxy)-3,7-dihydro-1H-purine-2,6-dione], the aqueous solubility result in data set [1] is given as “low aqueous solubility”. The logP in data set [2] stood at 5.2.

The logP is a log measure of how a compound divides between an organic and an aqueous phase. Higher therefore signals higher lipophilicity.
